The term IC50 denotes the concentration needed to halve the response being measured.

The structures appear in SMILES notation.

The text below walks through data of patent US5389660A, “Substituted imidazo-fused 5-membered ring heterocycles as angiotensin II antagonists” (Merck & Co., Inc., priority 1992, dated 1995).

The assay has as its system A II receptor. The experiment in a line: Angiotensin II ligand-receptor binding assay (rabbit aortae membrane preparation / bovine adrenal cortex preparation). The note with it: "at least IC50 <50 μM"; not stated which of the two binding assays (rabbit aortae, 125I-Sar1Ile8-A II; bovine adrenal cortex, 3H-A II); read-out: IC50 (50% displacement of specifically bound radiolabelled angiotensin II ligand). An excerpt: Angiotensin II (A II) is a powerful arterial vasoconstrictor, and it exerts its action by interacting with specific receptors present on cell membranes. The compounds described in the present invention act as competitive antagonists of A II at the receptors. In order to identify A II antagonists and determine their efficacy in vitro, the following two ligand-receptor binding assays were established.
Receptor binding assay using rabbit aortae membrane preparation
Three frozen rabbit aortae (obtained from Pel-Freeze Biologicals) were suspended in 5 mM Tris-0.25M Sucrose, pH 7.4 buffer (50 ml) homogenized, and then centifuged. The mixture was filtered through a cheesecloth and the supernatant was centrifuged for 30 minutes at 20,000 rpm at 4° C. The pellet thus obtained was resuspended in 30 ml of 50 mM Tris-5 mM MgCl2 buffer containing 0.2% Bovine Serum Albumin and 0.2 mg/ml Bacitration and the suspension was used for 100 assay tubes. Samples tested for screening were done in duplicate. To the membrane preparation (0.25 ml) there was added ^125 I-Sar^1 Ile^8 -angiotensin II [obtained from New England Nuclear] (10 ul; 20,000 cpm) with or without the test sample and the mixture was incubated at 37° C. for 90 minutes. The mixture was then diluted with ice-cold 50 mM Tris-0.9% NaCl, pH 7.4 (4 ml) and filtered through a glass fiber filter (GF/B Whatman 2.4" diameter). The filter was soaked in scintillation cocktail (10 ml) and counted for radioactivity using Packard 2660 Tricarb liquid scintillation counter. The inhibitory concentration (IC50) of potential A II antagonist which gives 50% displacement of the total specifically bound ^125 I-Sar^1 Ile^8 -angiotensin II was presented as a measure of the efficacy of such compounds as A II antagonists.
Receptor assay using Bovine adrenal cortex preparation
Bovine adrenal cortex was selected as the source of A II receptor. Weighed tissue (0.1 g is needed for 100 assay tubes) was suspended in Tris.HCl (50 mM), pH 7.7 buffer and homogenized. The homogenate was centrifuged at 20,000 rpm for 15 minutes. Supernatant was discarded and pellets resuspended in buffer [Na2 HPO4 (10 mM)-NaCl (120 mM)-disodium EDTA (5 mM) containing phenylmethane sulfonyl fluoride (PMSF)(0.1 mM)]. (For screening of compounds, generally duplicates of tubes are used). To the membrane preparation (0.5 ml) there was added 3H-angiotensin II ([…]) (10 ul) with or without the test sample and the mixture was incubated at 37° C. for 1 hour. The mixture was then diluted with Tris buffer (4 ml) and filtered through a glass fiber filter (GF/B Whatman 2.4" diameter). The filter was soaked in scintillation cocktail (10 ml) and counted for radioactivity using Packard 2660 Tricarb liquid scintillation counter. […]
In the case of `CCCCc1nc2cscc2n1Cc1ccc(-c2ccccc2C(=O)O)cc1` [Example 1, 4'-[(2-butyl-1H-thieno[3,4-d]imidazol-1-yl)methyl][1,1'-biphenyl]-2-carboxylic acid], the IC50 was below 50 µM.

`CCCCc1nc2cc(C(=O)OC)sc2n1Cc1ccc(-c2ccccc2C(=O)O)cc1` [Example 3, 2-butyl-3-[(2'-carboxy{1,1'-biphenyl}-4-yl)methyl]-3H-thieno[2,3-d]imidazole-5-carboxylic acid methyl ester]: the IC50 was below 50 µM.

Regarding `CCCCc1nc2sc(C(=O)OC)cc2n1Cc1ccc(-c2ccccc2-c2nnn[nH]2)cc1` [Example 6, 2-butyl-1-[(2'-{1H-tetrazol-5-yl}{1,1'-biphenyl}-4-yl)methyl]-1H-thieno[2,3-d]imidazole-5-carboxylic acid methyl ester], the IC50 was below 50 µM.

For the compound `CCCc1nc2c(c(C)nn2C)n1Cc1ccc(-c2ccccc2-c2nnn[nH]2)cc1` [Example 11, 1,4-Dihydro-1,3-dimethyl-5-propyl-4-[(2'-{1H-tetrazol-5-yl}{1,1'-biphenyl}-4-yl)methyl]imidazo[4,5-c]-pyrazole], the concentration for half-maximal inhibition (IC50) is below 50 µM.
